Data taken from patent US9808016B2, “Pesticide composition for shortening the virus lethal time” (priority 2012, dated 2017).

What was measured:
[1] = system: Spodoptera litura; conditions: for synergistic effects: chemical pesticide combined with the virus, compared with the pesticide alone; for LC50: 3 days after the treatment, NPV 5.5 × 10^5 PIB/ml where combined
[2] = system: third instar larvae of Spodoptera litura; test: Lethal time (LT50/LT90) of third instar larvae treated with nucleopolyhedrovirus and low concentration pesticides; type: in vivo; conditions: 1.47 ppm of Chlorantraniliprole alone
From the text: When treated with 5.5×10^5 PIB/ml of the Spodoptera litura nucleopolyhedrovirus alone, the 50% lethal time (LT50) of the third instar larvae was 9.2 days. But when treated with the formulation of the present invention, 5.5×10^5 PIB/ml of the virus and 1.47 ppm of Chlorantraniliprole, the LT50 was shortened to 1-2 days and the 90% of lethal time (LT90) was achieved by 3-4 days (see Table 1).

[3] = system: Spodoptera litura; test: Control rate of Spodoptera litura in Brassica oleracea crops in the field; type: in vivo; conditions: for Control rate One week after the first treatment / Control rate One week after the second treatment / Control rate One week after the third treatment / Control rate Two weeks after the third treatment / Control rate mean: field, NPV 10^6 PIB/mL, Chlorfluazuron 5 ppm, Chlorantraniliprole 1.47 ppm; for Control rate One week after the first treatment / Control rate One week after the second treatment / Control rate One week after the third treatment / Control rate Two weeks after the third treatment: Brassica oleracea; for Control rate mean: mean of the four assessments
From the text: Although mixing of proper pesticides can achieve synergistic effects, the mixture with current concentration for field application equals to twice the amount of pesticides used (If the viruses or pesticides are originally used individually, the mixture would be the same concentration used together). […] The content of Chlorantraniliprole used in the present invention (2% of the current registered concentration, 1.47 ppm) was 50 folds lower than the existing application technique. When mixing with Spodoptera litura nucleopolyhedrovirus, the LT50 of the third instar larvae was less than 2 days and the LT90 was only 3-4 days. […] However, when mixing the low concentration of Chlorantraniliprole with the virus, only 2% of the current registered amount of Chlorantraniliprole was mixed with the virus, 85-95% of control rate was achieved (Table 3).
The concentration of the Spodoptera litura nucleopolyhedrovirus: 10^6 PIB/mL; Chlorfluazuron was 5 ppm (20% of the current registered concentration); Chlorantraniliprole was 1.47 ppm (2% of the current registered concentration)

[4] = system: third instar larvae of Spodoptera litura; test: Cumulative death rates of third instar larvae (FIG. 1); type: in vivo; conditions: Chlorantraniliprole 7.36 ppm alone
From the text: The cumulative death rates of the third instar larvae of Spodoptera litura to 10% of the registered concentration of Chlorantraniliprole (7.36 ppm), nucleopolyhedrovirus (5.5×10^5 PIB/ml) and the mixture of 10% of the registered concentration of Chlorantraniliprole+nucleopolyhedrovirus were shown in FIG. 1. It cost 11 days for the treatment of nucleopolyhedrovirus alone to achieve 100% of death rate. For the treatment of Chlorantraniliprole alone, only 80% of death rate was achieved.

[5] = system: third instar larvae of Spodoptera litura; test: Indoor experiments: death rates with seven concentrations of Chlorantraniliprole mixed with nucleopolyhedrovirus (FIG. 2); type: in vivo; conditions: 40 ppm of Chlorantraniliprole
Description: In the indoor experiments, the third instar larvae of Spodoptera litura were treated with the mixtures of seven different concentrations of Chlorantraniliprole with the nucleopolyhedrovirus. […] The synergistic effect of the mixture was more significant especially in the comparison of the low death rate caused by the low concentration of Chlorantraniliprole (see FIG. 2).

SMILES	synergistic effects [1]	pest control effect [2]	Control rate One week after the first treatment [3] [%]	Control rate One week after the second treatment [3] [%]	Control rate One week after the third treatment [3] [%]	Control rate Two weeks after the third treatment [3] [%]	pest control effects in the field ([3]; low concentration (1.47 ppm) administered alone)	Control rate mean [3] [%]	death rate achieved [4] [%]	death rate [5] [%]	LC50 [1] [ppm]
N#Cc1ccc(CC(=NNC(=O)Nc2ccc(OC(F)(F)F)cc2)c2cccc(C(F)(F)F)c2)cc1 (mixture of isomers) [Metaflumizone]	interfered effects	–	–	–	–	–	–	–	–	–	–
CNC(=O)c1cc(Cl)cc(C)c1NC(=O)c1cc(Br)nn1-c1ncccc1Cl [Chlorantraniliprole]	4 folds	no pest control effect	31.6	22.9	77.3	−5	no pest control effects	32	80	100	1.36
CCOCn1c(-c2ccc(Cl)cc2)c(C#N)c(Br)c1C(F)(F)F [Chlorfenapyr]	–	–	–	–	–	–	–	–	–	–	11.8
O=C(NC(=O)c1c(F)cccc1F)Nc1cc(Cl)c(Oc2ncc(C(F)(F)F)cc2Cl)c(Cl)c1 [Chlorfluazuron]	–	–	−3.2	−50.3	38.6	19.2	–	1.0	–	–	7.48
